From patent publication US6503952B2, “Triple antimicrobial composition” (The Trustees of Columbia University in the City of New York, priority 1995, dated 2003)

Legend:
Staphylococcus aureus [1] = assay: Colony counts with CHX and PCMX (in 5% isopropanol) in the presence of blood; format: cell-based; settings: Table 11: in 5% isopropanol, control 3 × 10^6
Method: […] After one minute, a 50 microliter aliquot from each sample was diluted to a volume of 10 ml with LTSB drug inactivating medium (5% Tween 80, 2% lecithin, 0.6% sodium oleate, 0.5% sodium thiosulfate, 0.1% protease peptone and 0.1% tryptone), and then 0.5 ml of the diluted culture was plated on trypticase soy agar plates. The plates were incubated at 37° C. for 24 hours, and then colony counts per milliliter of the original 1 ml antimicrobial containing culture were determined.

Staphylococcus aureus [2] = assay: Rate of kill: colony counts after one minute exposure of Staphylococcus aureus in TSB broth with 20% serum; format: cell-based; settings: for CFU/mL: Table 15: single agent, control 2.0 × 10^7
Method: To produce each sample, 0.1 ml of a ten-fold concentrated antimicrobial solution was added to 0.9 ml of TSB broth containing 20% serum and 107 colony forming units (CFU) of Staphylococcus aureus. After one minute, a 50 microliter aliquot from each sample was diluted to a volume of 10 ml with LTSB drug inactivating medium (5% Tween 80, 2% lecithin, 0.6% sodium oleate, 0.5% sodium thiosulfate, 0.1% protease peptone and 0.1% tryptone), and then 0.5 ml of the diluted culture was plated on trypticase soy agar plates. The plates were incubated at 37° C. for 24 hours, and then colony counts per milliliter of the original 1 ml antimicrobial containing culture were determined.
Using the same methods set forth in example section 5, above, the rate of kill of compositions comprising PHMB, PCMX, BZK and PXE were tested. […] Synergy was also observed among 0.1% PXE+0.05% PHMB+0.05% PCMX.

[H]/N=C(\N/C(=N/[H])NCCCCCCNC(=N)NC(=N)Nc1ccc(Cl)cc1)Nc1ccc(Cl)cc1 [1% CHX, chlorhexidine]
CFU/ml (Staphylococcus aureus [1]): 1 × 10^4 CFU/ml

[H]/N=C(\N/C(=N/[H])NCCCCCCNC(=N)NC(=N)Nc1ccc(Cl)cc1)Nc1ccc(Cl)cc1 [.5% CHX, chlorhexidine]
CFU/ml (Staphylococcus aureus [1]): 1 × 10^5 CFU/ml

benzalkonium chloride [BZK]
CFU/mL (Staphylococcus aureus [2]; concentration 0.02%): 2.0 × 10^7 CFU/mL

parachlorometaxylenol [.5% PCMX]
CFU/ml (Staphylococcus aureus [1]): 0 CFU/ml

parachlorometaxylenol [.25% PCMX]
CFU/ml (Staphylococcus aureus [1]): 1.4 × 10^4 CFU/ml

parachlorometaxylenol [.125% PCMX]
CFU/ml (Staphylococcus aureus [1]): 1 × 10^6 CFU/ml

parachlorometaxylenol [PCMX]
decrease in the number of CFU relative to control (factor / fold) (Staphylococcus aureus [2]; 2.5% ISOPR samples, relative to the control named in the text (A1, A2, A4 or the no-antimicrobial control)): ten | CFU/mL (Staphylococcus aureus [2]; concentration 0.05%): 5.0 × 10^6 CFU/mL | CFU/mL (Staphylococcus aureus [2]; concentration 0.1%): 1.6 × 10^3 CFU/mL

polyhexamethylene biguanide [PHMB]
CFU/mL (Staphylococcus aureus [2]; concentration 0.025%): 5.0 × 10^6 CFU/mL | CFU/mL (Staphylococcus aureus [2]; concentration 0.05%): 2.0 × 10^6 CFU/mL | CFU/mL (Staphylococcus aureus [2]; concentration 0.1%): 4.0 × 10^6 CFU/mL
